These results are taken from US8093226B2, “Cytostatic 7-deazapurine nucleosides” (Institute of Organic Chemistry and Biochemistry of the …, priority 2008, dated 2012).

Common to all, as to assay type: cell-based
One test relates to A549. As to the kind of experiment: Test A: Cytostatic Cell Culture Assay (GI50), A549. The note with it: Homo sapiens, 120 h; A549 cells, 5 days, SRB; read-out: G150 Lung A549. The text has this: (§1) Test A: Cytostatic Cell Culture Assay (GI50)
(§2) This assay is based on quantification of cell counts by a calorimetric detection of the cell associated proteins. The assay relies on the ability of sulforhodamine B (SRB) to bind to protein components of cells that have been fixed to tissue-culture plates by trichloroacetic acid (TCA). SRB is a bright-pink aminoxanthene dye with two sulfonic groups that bind to basic amino-acid residues under mild acidic conditions, and dissociate under basic conditions. As the binding of SRB is stoichiometric, the amount of dye extracted from stained cells is directly proportional to the cell mass.
(§3) Cell lines: All cell lines are obtained from ATCC (Manassas, Va.). Cultivation media containing Glutanax, and trypsin are purchased from Invitrogen (Carlsbad, Calif.). Doxorubicin, Clofarabine, TCA and SRB are from Sigma-Aldrich (St. Louis, Mo.). Gemcitabine is obtained from Moravek Biochemicals (Brea, Calif.)
(§4) • 1. Trypsinize the sub-confluent cells, count them, and adjust the cell concentrations according to the cell counts listed in Table 1. • 2. Distribute the cells into the 96-well plates in 150 μL of media. Incubate the plates overnight in humidified CO2 incubator at 37° C. • 3. Fix one plate of each cell line with TCA. Discard the cultivation media from the plates by flicking them gently and add 100 μL cold 10% (vol/vol) TCA to each well. Incubate the plates at 4 degree refrigerator for 1 hour. Discard TCA from the plates by flicking them gently. Rinse plates four times in a washing basin containing tap water. Store the plates at room temperature. These plates represent cell counts on day zero. • 4. Prepare a set of medium solutions containing various concentrations of tested compounds by making 5-fold serial dilutions in 96-well plate. Add 50 μL of the diluted compounds per well. Include controls with untreated cells and cells treated with doxorubicin, clofarabine and gemcitabine. • 5. Incubate the plates for 5 days at 37° C. • 6. Fix the plates with TCA. Discard the cultivation media from the plates by flicking them gently and add 100 μL cold 10% (vol/vol) TCA to each well. Incubate the plates at 4 degree refrigerator for 1 hour. Discard TCA from the plates by flicking them gently. Rinse plates four times in a washing basin containing tap water. • 7. Remove excess water by tapping the plates face down, gently on a paper towel. Allow the plates to air-dry at room temperature. • 8. Add 100 μL of 0.057% SRB solution in 1% (vol/vol) acetic acid to each well of the plates fixed with TCA on day zero and five. Leave at room temperature for 30 minutes. • 9. Flick the plates gently to discard SRB. Rinse the plates four times with 1% (vol/vol) Acetic Acid. • 10. Store the plates at 370 incubator to facilitate faster drying. • 11. Once the plates are completely dry, add 200 μL of 10 mM Tris base solution (pH 10.5) to each well. Leave at room temperature for 30 minutes for SRB to solubilize. • 12. Measure the OD at 500 nm in a microplate reader. • 13. Calculate the percentage of cell-growth inhibition using the next formula: % of control cell growth=100×(ODsample−mean ODday0)/(ODneg control−mean ODday0)
(§5) For GI50 determination, plot a dose-response curves between the compound concentration and percent of growth inhibition. GI50 values can be derived by fitting dose-response curves using sigmoidal dose response equation.

Another test relates to NCIH23. The experiment in a line: Test A: Cytostatic Cell Culture Assay (GI50), NCIH23. The note with it: Homo sapiens, NCI-H23, 120 h; NCIH23 cells, 5 days, SRB; read-out: G150 Lung NCIH23.
Text: as §1, §2, §3, §4, §5

For a further test, the system named is Du145. The experiment in a line: Test A: Cytostatic Cell Culture Assay (GI50), Du145. Conditions: Homo sapiens, DU-145, 120 h; Du145 cells, 5 days, SRB; read-out: G150 Prostate Du145.
Text: as §1, §2, §3, §4, §5

The next test relates to PC3. The experiment in a line: Test A: Cytostatic Cell Culture Assay (GI50), PC3. The note with it: Homo sapiens, PC-3, 120 h; PC3 cells, 5 days, SRB; read-out: G150 Prostate PC3.
Text: as §1, §2, §3, §4, §5

For a further test, the system named is HCT116. The experiment in a line: Test A: Cytostatic Cell Culture Assay (GI50), HCT116. The note with it: Homo sapiens, HCT-116, 120 h; HCT116 cells, 5 days, SRB; read-out: G150 Colon HCT116.
Text: as §1, §2, §3, §4, §5

A further test relates to HCT15. The experiment in a line: Test A: Cytostatic Cell Culture Assay (GI50), HCT15. The note with it: Homo sapiens, HCT-15, 120 h; HCT15 cells, 5 days, SRB; read-out: G150 Colon HCT15.
Text: as §1, §2, §3, §4, §5

For a further test, the system named is Hs578. As to the kind of experiment: Test A: Cytostatic Cell Culture Assay (GI50), Hs578. The note with it: 120 h; Hs578 cells, 5 days, SRB; read-out: G150 Breast Hs578.
Text: as §1, §2, §3, §4, §5

Test [1] concerns Human T-lymphoid cell line CCRF-CEM. The experiment in a line: Cell cycle distribution in human T-lymphoid cells (propidium iodide, flow cytometry). Conditions: 72 hours; for G1 % / G2/M % / S %: 0.3 μM. On the procedure: Effects of the Compounds on Cell Cycle Distribution in Human T-Lymphoid Cells
Human T-lymphoid cell line CCRF-CEM is treated with tested compounds for 72 hours at the concentration corresponding to the CC50 value of each compound. At the end of incubation, cells are harvested by centrifugation, washed, and fixed in ethanol. Fixed cells are stained with propidium iodide in a buffer containing RNaseA and the cell cycle distribution analysis is performed by flow cytometry using BD FACSAria instrument. Data are processed using BD FACSDiva software v4.1 and presented as a percentage of analyzed cell population in Phase G1, S, and G2/M. Cell cycle distribution is determined in parallel for untreated and treated cells and relative change for each cell cycle phase is calculated.
The data represent changes in the frequency of each cell cycle phase in treated cells relative to untreated control (the relative fraction of each analyzed cell cycle phase in untreated control has the value of 1).
Primary data are shown in Table 3, with values representing the percentage distribution of each cell cycle phase in the total cell population.

Where [2] appears, read: concentration corresponding to CC50, untreated control = 1.

With `OC[C@H]1O[C@@H](n2ccc3c(-c4ccco4)ncnc32)[C@H](O)[C@@H]1O` [Example 5, 4-(Furan-2-yl)-7-(β-D-ribofuranosyl)-7H-pyrrolo[2,3-d]pyrimidine], the IC50 in the test on A549 was 88 nM; with NCIH23 it was 4200 nM; with Du145, 7 nM; with PC3, 91 nM; with HCT116, 78 nM; in the test with HCT15, 20 nM. In addition, the IC50 in the test with Hs578 was 49 nM. Besides, the G1 % in test [1] (replicate 1) came to 26.14%; in test [1] (replicate 2), 23.61%. The G2/M % in test [1] (replicate 1) is 11.89%; in test [1] (replicate 2), 16.41%. For the same compound, the S % in test [1] (replicate 1) worked out at 61.98%; in test [1] (replicate 2), 59.99%. The “Relative change in cell cycle phase compared to untreated control, G1” value in test [1] (setting [2]) is on record as 0.57. For the same compound, the “Relative change in cell cycle phase compared to untreated control, G2/M” value in test [1] (setting [2]) is listed as 1.19. Besides, the “Relative change in cell cycle phase compared to untreated control, S” value in test [1] (setting [2]) is 1.38.

For the compound `OC[C@H]1O[C@@H](n2ccc3c(-c4ccc[nH]4)ncnc32)[C@H](O)[C@@H]1O` [Example 7, 4-(1H-Pyrrol-2-yl)-7-(β-D-ribofuranosyl)-7H-pyrrolo[2,3-d]pyrimidine], the IC50 was more than 20000 nM with A549; 2500 nM in the test with NCIH23; 630 nM in the test with Du145; 1280 nM in the test on PC3; more than 20000 nM in the test on HCT116; 2440 nM in the test on HCT15. Moreover, the IC50 in the test with Hs578 came out at 1280 nM.

For the compound `OC[C@H]1O[C@@H](n2ccc3c(-c4ccsc4)ncnc32)[C@H](O)[C@@H]1O` [Example 13, 7-(β-D-Ribofuranosyl)-4-(thiophen-3-yl)-7H-pyrrolo[2,3-d]pyrimidine], the IC50 came to 627 nM with A549; 4240 nM with NCIH23; 32 nM in the test on Du145; 92 nM in the test on PC3; 216 nM in the test on HCT116; 98 nM with HCT15. In the test with Hs578, the IC50 turned out to be 711 nM.

As to `OC[C@H]1O[C@@H](n2cc(Cl)c3c(-c4ccsc4)ncnc32)[C@H](O)[C@@H]1O` [Example 32, 5-Chloro-7-(β-D-ribofuranosyl)-4-(thiophen-3-yl)-7H-pyrrolo[2,3-d]pyrimidine], the IC50 in the test on A549 is 378 nM; with NCIH23, 4540 nM; with Du145 it was 18 nM; in the test on PC3, 118 nM; with HCT116 it was 101 nM; with HCT15, 148 nM. The IC50 in the test with Hs578 worked out at 109 nM.

`OC[C@H]1O[C@@H](n2cc(Cl)c3c(-c4ccoc4)ncnc32)[C@H](O)[C@@H]1O` [Example 31, 5-Chloro-4-(furan-3-yl)-7-(β-D-ribofuranosyl)-7H-pyrrolo[2,3-d]pyrimidine]: the IC50 with A549 was 1050 nM; in the test with NCIH23, 5260 nM; in the test with Du145, 54 nM; in the test with PC3, 1200 nM; in the test on HCT116, 1960 nM; with HCT15, 632 nM. Also, in the test with Hs578, the IC50 amounted to 1580 nM.

For `OC[C@H]1O[C@@H](n2cc(F)c3c(-c4ccoc4)ncnc32)[C@H](O)[C@@H]1O` [Example 23, 5-Fluoro-4-(furan-3-yl)-7-(β-D-ribofuranosyl)-7H-pyrrolo[2,3-d]pyrimidine], the IC50 with A549 turned out to be 60 nM; in the test on NCIH23 it was 4640 nM; in the test on Du145, 5 nM; with PC3, 87 nM; in the test on HCT116, 18 nM; with HCT15, 39 nM. Further, the IC50 with Hs578 worked out at 177 nM.

In the case of `OC[C@H]1O[C@@H](n2ccc3c(-c4cc[nH]c4)ncnc32)[C@H](O)[C@@H]1O` [Example 14, 4-(1H-Pyrrol-3-yl)-7-(β-t-ribofuranosyl)-7H-pyrrolo[2,3-d]pyrimidine], the IC50 in the test on A549 was determined as 365 nM; in the test on NCIH23, 2320 nM; with Du145, 30 nM; in the test on PC3, 384 nM; in the test on HCT116 it was 500 nM; with HCT15, 163 nM. The IC50 with Hs578 worked out at 442 nM.

On to `OC[C@H]1O[C@@H](n2ccc3c(-c4ccoc4)ncnc32)[C@H](O)[C@@H]1O` [Example 12, 4-(Furan-3-yl)-7-(β-D-ribofuranosyl)-7H-pyrrolo[2,3-d]pyrimidine], for which the IC50 in the test on A549 was found to be 73 nM; in the test with NCIH23, 697 nM; in the test with Du145, 36 nM; in the test on PC3, 150 nM; with HCT116 it was 92 nM; in the test with HCT15, 86 nM. In addition, in the test on Hs578, the IC50 turned out to be 264 nM.

Consider `OC[C@H]1O[C@@H](n2ccc3c(-c4ccc[se]4)ncnc32)[C@H](O)[C@@H]1O` [Example 15, 7-(O-D-Ribofuranosyl)-4-(selenophen-2-yl)-7H-pyrrolo[2,3-d]pyrimidine], for which the IC50 is 230 nM in the test on A549; 2520 nM in the test with NCIH23; 28 nM with Du145; 12 nM in the test with PC3; 342 nM with HCT116; 5 nM in the test on HCT15. The IC50 in the test with Hs578 was 290 nM.

For `OC[C@H]1O[C@@H](n2cc(F)c3c(-c4ccsc4)ncnc32)[C@H](O)[C@@H]1O` [Example 24, 5-Fluoro-7-(β-D-ribofuranosyl)-4-(thiophen-3-yl)-7H-pyrrolo[2,3-d]pyrimidine], the IC50 in the test with A549 is 379 nM; in the test on NCIH23, 2950 nM; with Du145, 66 nM; with PC3, 105 nM; with HCT116, 145 nM; with HCT15, 179 nM. For the same compound, the IC50 in the test with Hs578 is 813 nM.

Take `OC[C@H]1O[C@@H](n2ccc3c(-c4c[nH]cn4)ncnc32)[C@H](O)[C@@H]1O` [Example 9, 4-(1H-Imidazol-4-yl)-7-(β-D-ribofuranosyl)-7H-pyrrolo[2,3-d]pyrimidine]: the IC50 in the test with A549 came to 2590 nM; in the test on NCIH23 it was 2490 nM; with Du145, 94 nM; in the test on PC3 it was 194 nM; in the test on HCT116 it was 3690 nM; with HCT15 it was 224 nM. In addition, the IC50 in the test on Hs578 amounted to 1940 nM.

Regarding `OC[C@H]1O[C@@H](n2cc(Cl)c3c(-c4ccco4)ncnc32)[C@H](O)[C@@H]1O` [Example 29, 5-Chloro-4-(furan-2-yl)-7-(β-D-ribofuranosyl)-7H-pyrrolo[2,3-d]pyrimidine], the IC50 with A549 is 15200 nM; in the test with NCIH23, 13200 nM; in the test on Du145, 10000 nM; with PC3, more than 20000 nM; in the test with HCT116, more than 20000 nM; in the test with HCT15, 8150 nM. Further, the IC50 in the test with Hs578 is more than 20000 nM.
